Earlier results on one substance are cited in patent publication US20030077264A1, “Antimicrobial blood treatment using allicin and related compounds” (priority 2001, published 2003).

One data set relates to Helicobacter pylori. The following applies: in medium.
For data set [1] the following is noted: buffer.

Regarding “thio-2-propene-1-sulfinic acid S-allyl ester [Allicin]”, the minimum inhibitory concentration in the data set on Helicobacter pylori was 4.0 µg/mL. In data set [1], the half-life was 30 to 40 days.

One may read the half-life as how long it takes for the measured level to halve.
